Earlier results in patent US8771712B2, “Topical administration of acyclovir” (Emisphere Technologies, Inc., priority 2006, dated 2014).

Details: humans, microdialysis

**Q.** Which results are given for `Nc1nc2c(ncn2COCCO)c(=O)[nH]1` [acyclovir, 9-(2-hydroxyethoxymethyl) guanine]?
**A.** Acyclovir concentration (dermis) (after removal of the stratum corneum and infusion of 0.0005% noradrenaline): 3.9 µg/mL; Acyclovir in the dermis (application to intact skin): no acyclovir was detected
